From patent publication US7049341B2, “N-benzoylureidocinnamic acid derivatives, processes for preparing them and their use” (Aventis Pharma Deutschland GmbH, priority 2002, dated 2006)

Target: T1, Human glycogen phosphorylase a (Homo sapiens, UniProt P06737)
T1 sequence (P06737 1-847): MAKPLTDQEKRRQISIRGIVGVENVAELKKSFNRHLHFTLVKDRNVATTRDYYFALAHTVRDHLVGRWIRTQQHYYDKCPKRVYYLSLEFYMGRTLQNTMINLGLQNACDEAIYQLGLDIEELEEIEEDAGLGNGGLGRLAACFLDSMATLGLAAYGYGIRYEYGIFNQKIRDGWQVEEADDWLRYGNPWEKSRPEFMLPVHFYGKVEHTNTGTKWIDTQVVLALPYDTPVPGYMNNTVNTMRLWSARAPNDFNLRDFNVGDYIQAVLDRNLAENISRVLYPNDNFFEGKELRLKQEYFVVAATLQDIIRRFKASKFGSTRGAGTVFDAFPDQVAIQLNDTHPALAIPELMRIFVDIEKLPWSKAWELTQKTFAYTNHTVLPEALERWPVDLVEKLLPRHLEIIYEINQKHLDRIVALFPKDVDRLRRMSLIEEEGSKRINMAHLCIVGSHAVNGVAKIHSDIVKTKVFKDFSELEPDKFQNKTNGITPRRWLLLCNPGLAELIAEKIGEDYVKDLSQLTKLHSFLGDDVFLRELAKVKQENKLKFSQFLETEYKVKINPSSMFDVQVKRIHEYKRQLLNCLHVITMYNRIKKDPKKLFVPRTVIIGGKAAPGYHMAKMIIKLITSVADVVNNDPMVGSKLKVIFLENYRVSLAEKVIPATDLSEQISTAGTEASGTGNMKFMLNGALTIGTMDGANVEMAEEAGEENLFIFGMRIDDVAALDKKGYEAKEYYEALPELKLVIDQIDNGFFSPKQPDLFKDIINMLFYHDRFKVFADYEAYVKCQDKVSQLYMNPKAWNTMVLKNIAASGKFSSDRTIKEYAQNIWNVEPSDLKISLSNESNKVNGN
Experiment: Glycogen phosphorylase a activity test (reverse direction, release of inorganic phosphate)
Assay type: biochemical
Details: 10 μM concentration of the test substance; in vitro, duplicate determinations
Procedure: Glycogen Phosphorylase a Activity Test
The effect of compounds on the activity of the active form of glycogen phosphorylase (GPa) was measured in the reverse direction by monitoring the synthesis of glycogen from glucose 1-phosphate by determining the release of inorganic phosphate. All the reactions were carried out as duplicate determinations in 96-well microtiter plates (Half Area Plates, Costar No. 3696), with the change in absorption due to the formation of the reaction product being measured, at the wavelength specified below, in a Multiscan Ascent Elisa Reader (Lab Systems, Finland). In order to measure the enzymic activity of GPa in the reverse direction, the conversion of glucose 1-phosphate into glycogen and inorganic phosphate was measured in accordance with the general method of Engers et al. (Engers H D, Shechosky S, Madsen N B, Can J Biochem 1970 July;48(7): 746–754) but with the following modifications: Human glycogen phosphorylase a (for example containing 0.76 mg of protein/ml (Aventis Pharma Deutschland GmbH), dissolved in buffer solution E (25 mM β-glycerophosphate, pH 7.0, 1 mM EDTA and 1 mM dithiothreitol), was diluted with buffer T (50 mM Hepes, pH 7.0, 100 mM KCl, 2.5 mM EDTA, 2.5 mM MgCl2.6H2O), and addition of 5 mg of glycogen/ml, to a concentration of 10 μg of protein/ml. Test substances were prepared as a 10 mM solution in DMSO and diluted down to 50 μM with buffer solution T. 10 μl of 37.5 mM glucose, dissolved in buffer solution T and 5 mg/ml of glycogen, and also 10 μl of a solution of human glycogen phosphorylase a (10 μg of protein/ml) and 20 μl of glucose 1-phosphate, 2.5 mM, were added to […] of the solution. The basal value of the activity of the glycogen phosphorylase a in the absence of test substance was determined by adding 10 μl of buffer solution T (0.1% DMSO). The mixture was incubated at room temperature for 40 minutes and the inorganic phosphate which was released was measured using the general method of Drueckes et al. (Drueckes P, Schinzel R, Palm D, Anal Biochem 1995 Sep. 1;230(1):173–177) but with the following modifications: 50 μl of a stop solution of 7.3 mM ammonium molybdate, 10.9 mM zinc acetate, 3.6% ascorbic acid, 0.9% SDS are added to 50 μl of the enzyme mixture. After 60 minutes of incubation at 45° C., the absorption was measured at 820 nm. In order to determine the background absorption, the stop solution was added immediately after adding the glucose 1-phosphate solution in a separate assay. This test was carried out using a 10 μM concentration of the test substance in order to determine the respective inhibition of glycogen phosphorylase a by the test substance in vitro.

Row | inhibition at 10 µM | SMILES
1 | 101% | O=C(O)C=Cc1ccccc1NC(=O)NC(=O)c1cc(F)c(F)cc1Cl [Example 2, 3-{2-[3-(2-chloro-4,5-difluorobenzoyl)ureido]phenyl}acrylic acid]
2 | 95% | CC(=O)Nc1ccc(C=CC(=O)O)c(NC(=O)NC(=O)c2cc(F)c(F)cc2Cl)c1 [Example 3, 3-{4-Acetylamino-2-[3-(2-chloro-4,5-difluorobenzoyl)ureido]phenyl}acrylic acid]
3 | 96% | COC(=O)C=Cc1cc(C(=O)O)ccc1NC(=O)NC(=O)c1cc(F)c(F)cc1Cl [Example 7, 4-[3-(2-chloro-4,5-difluorobenzoyl)ureido]-3-(2-methoxycarbonylvinyl)benzoic acid]
4 | 91% | COC(=O)C=Cc1cc(C(=O)OC)ccc1NC(=O)NC(=O)c1cc(F)c(F)cc1Cl [Example 11, Methyl 4-[3-(2-chloro-4,5-difluorobenzoyl)ureido]-3-(2-methoxycarbonylvinyl)benzoate]
